In patent US20090088419A1, “PYRIDYL ACETIC ACID COMPOUNDS” (TAKEDA PHARMACEUTICAL COMPANY LIMITED, priority 2005, published 2009) one finds IC50 data, which are given here for 13 molecules.

Counter-ions that a name gives are not always drawn.

The first test deals with T1, dipeptidyl peptidase IV (Rattus norvegicus, UniProt P14740).
T1 construct: from tissue; host or cells: SD rat blood plasma
T1 sequence (P14740 37-767 limits assumed): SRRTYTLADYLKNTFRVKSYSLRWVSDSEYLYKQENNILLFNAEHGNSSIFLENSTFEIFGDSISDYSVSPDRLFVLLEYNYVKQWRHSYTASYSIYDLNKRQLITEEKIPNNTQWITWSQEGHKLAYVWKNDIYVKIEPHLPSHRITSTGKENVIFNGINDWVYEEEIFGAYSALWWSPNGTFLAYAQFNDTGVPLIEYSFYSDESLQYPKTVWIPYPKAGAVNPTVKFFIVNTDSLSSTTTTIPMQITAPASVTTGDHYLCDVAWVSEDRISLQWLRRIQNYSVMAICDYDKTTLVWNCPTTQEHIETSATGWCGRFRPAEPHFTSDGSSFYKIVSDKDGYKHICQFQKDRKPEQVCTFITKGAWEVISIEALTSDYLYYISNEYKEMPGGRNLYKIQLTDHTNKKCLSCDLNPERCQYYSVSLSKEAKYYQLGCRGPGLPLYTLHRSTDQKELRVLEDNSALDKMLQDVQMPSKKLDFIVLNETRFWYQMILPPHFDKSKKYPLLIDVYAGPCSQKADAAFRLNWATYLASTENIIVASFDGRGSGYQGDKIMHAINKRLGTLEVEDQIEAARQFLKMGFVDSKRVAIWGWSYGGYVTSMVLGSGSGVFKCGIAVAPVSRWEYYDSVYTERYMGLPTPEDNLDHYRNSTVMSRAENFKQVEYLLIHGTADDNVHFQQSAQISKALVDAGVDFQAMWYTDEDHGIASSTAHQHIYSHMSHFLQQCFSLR
The experiment in a line: Determination of dipeptidyl peptidase IV inhibitory activity in rat plasma (Experimental Example 1). The format is biochemical. Conditions: plasma of SD rat, substrate Gly-Pro-p-NA, 30° C., absorbance 405 nm after 1 hr; Table 5. As for the experimental part:
(§1) Determination of Dipeptidyl Peptidase IV Inhibitory Activity in Rat Plasma
(§2) A dimethylformamide solution (1 μL) containing the test compound was added to a mixture of water (69 μL), 1 M Tris-hydrochloride buffer (10 μL, pH 7.5) and 1 mM aqueous Gly-Pro-p-NA solution (100 μL) to prepare a mixed solution. Plasma (20 μL) prepared from blood of SD rat according to a conventional method was added to the above-mentioned mixed solution and the enzyme reaction was started at 30° C. The absorbance after 0 hr. and 1 hr. was measured using a microplate reader at a wavelength of 405 nm and an increase (AODs) was determined. At the same time, an increase (AODc) in absorbance of the reaction mixture without the test compound, and an increase (AODb) in absorbance of the reaction mixture without the test compound and the enzyme were determined and the inhibition rate of dipeptidyl peptidase IV enzyme activity was calculated from the following formula:
(§3) {1−[(ΔODs−ΔODb)/(ΔODc−ΔODb)]}×100
The dipeptidyl peptidase IV inhibitory activity of the test compound group is expressed in IC50 value (nM) and shown in Table 5.
As a reminder, the IC50 is the concentration that inhibits the measured activity by half. A lower IC50 goes with greater potency in that assay. Consider `CC(=O)N1CCN(C(=O)Cc2c(CC(C)C)nc(CC(C)C)c(CN)c2-c2ccc(C)cc2)CC1` [Example 47], for which half-maximal inhibition (IC50) was put at 4.8 nM.
With `CCc1nc(CC(C)(C)C)c(CN)c(-c2ccc(C)cc2)c1CC(=O)Nc1ccc(C(C)=O)cc1` [Example 80], the IC50 is 11 nM.
Regarding `CCc1nc(CC(C)(C)C)c(CN)c(-c2ccc(C)cc2)c1CC(=O)N1CCN(C(C)=O)CC1` [Example 89], the IC50 was found to be 3.6 nM. This IC50 is about 3.1-fold lower than that of the molecule before.
The molecule `Cc1ccc(-c2c(CN)c(CC(C)C)nc(CC(C)C)c2CC(=O)N2C[C@@H](C)O[C@@H](C)C2)cc1` [Example 20] yielded an IC50 of 8.4 nM.
In the case of `CCc1nc(CC(C)(C)C)c(CN)c(-c2ccc(C)cc2)c1CC(=O)N1CCC[C@H]1C(N)=O` [Example 87], the IC50 was 0.32 nM.
The same measure, in the same setting: the figure for `Cc1ccc(-c2c(CN)c(CC(C)C)nc(CC(C)C)c2CC(=O)N2CCC(S(C)(=O)=O)C2)cc1` (stereo not shown) [Example 10, [(2,6-diisobutyl-4-(4-methylphenyl)-5-{2-[3-(methylsulfonyl)pyrrolidin-1-yl]-2-oxoethyl}pyridin-3-yl)methyl]amine ditrifluoroacetate] is 0.85 nM; for `CCc1nc(CC(C)(C)C)c(CN)c(-c2ccc(C)cc2)c1CC(=O)N1C[C@@H](C)O[C@@H](C)C1` [Example 64] it is 1.7 nM; for `Cc1ccc(-c2c(CN)c(CC(C)C)nc(CC(C)C)c2CC(=O)N2CCC[C@H]2C(N)=O)cc1` [Example 45] it is 2 nM.
Molecule `CCc1nc(CC(C)C)c(CN)c(-c2ccc(C)cc2)c1CC(=O)O` [Example 1, [5-(aminomethyl)-2-ethyl-6-isobutyl-4-(4-methylphenyl)pyridin-3-yl]acetic acid] gave an IC50 of 33 nM. Compared with the last molecule, the IC50 is about 16-fold higher.

Another test has as its target T1, dipeptidyl peptidase IV. The experiment in a line: Determination of dipeptidyl peptidase IV inhibitory activity in rat plasma (Experimental Example 2). The format is biochemical. Conditions: plasma of SD rat, same manner as Experimental Example 1; Table 6. As for the experimental part:
as §2, §3, §1
The molecule `Cc1ccc(-c2c(CN)c(CC(C)C)nc(CC(C)C)c2CC(=O)O)cc1` [Example 2, [5-(aminomethyl)-2,6-diisobutyl-4-(4-methylphenyl)pyridin-3-yl]acetic acid dihydrochloride] came in with an IC50 of 35 nM. That is a double-digit nanomolar value.
On the same count and under the same terms, the figure for `CCc1nc(CC(C)(C)C)c(CN)c(-c2ccc(C)cc2)c1CC(=O)Nc1cccc(S(C)(=O)=O)c1` [Example 7, 2-[5-(aminomethyl)-2-ethyl-4-(4-methylphenyl)-6-neopentylpyridin-3-yl]-N-[3-(methylsulfonyl)phenyl]acetamide dihydrochloride] is 51 nM.
Still for that read-out and setting: the figure for `CCc1nc(CC(C)(C)C)c(CN)c(-c2ccc(C)cc2)c1CC(=O)Nc1cccc(C(C)=O)c1` [Example 5, N-(3-acetylphenyl)-2-[5-(aminomethyl)-2-ethyl-4-(4-methylphenyl)-6-neopentylpyridin-3-yl]acetamide dihydrochloride] is 5.1 nM; for `CCc1nc(CC(C)(C)C)c(CN)c(-c2ccc(C)cc2)c1CC(=O)N1CCC[C@H]1C(N)=O` [Example 6, 1-{[5-(aminomethyl)-2-ethyl-4-(4-methylphenyl)-6-neopentylpyridin-3-yl]acetyl}-L-prolinamide] it is 2.7 nM.
